Reference: patent publication EP4692059A1, “CATIONIC LIPID HAVING DISULFIDE BOND” (Tohoku University, priority 2023, dated 2024)

Columns and labels:
[1] = Particle size, PdI and zeta potential of mRNA-encapsulating LNPs by dynamic light scattering (Experimental Example 2); type: physicochemical
Procedure: An acidic buffer solution (total amount: 1080 µL) of nucleic acid was prepared by weighing 7.2 µg of mRNA solution (0.6 mg/mL) in a 5 mL tube and adding acidic malate buffer (20 mM, pH 3.0).
An acidic buffer solution of nucleic acid and an ethanol solution of lipid were each weighed in a syringe.
The particle size, PdI (Polydispersity Index), and zeta potential of the mRNA-encapsulating LNP prepared by the method of the above-mentioned 1 were measured by a dynamic light scattering method (Zetasizer Nano; Malvern).

[2] = tested on: liver; assay: In vivo gene expression, luciferase luminescence in the liver after tail vein administration (Experimental Example 4); conditions: BALB/c mouse, mRNA 0.05 mg/kg; for amount of luminescence (photons/sec) in liver: tail vein, 4.5 hr after administration, LNP cationic lipid:DOPC:Chol:DMG-PEG2k = 52.5:7.5:40:1.5, prepared as in Experimental Example 2; for relative amount of luminescence: liver luminescence relative to cationic lipid of Comparative Example
Procedure: LNP encapsulating mRNA that expresses luciferase (cationic lipid:DOPC:Chol:DMG-PEG2k = 52.5:7.5:40:1.5 (molar ratio)) was prepared by the method described in [Experimental Example 2], 1.
(§1) The prepared each mRNA-encapsulating LNP dispersion was administered from the tail vein of BALB/c mouse (male, 5-week-old). The dose of mRNA was set to 0.05 mg per 1 kg body weight of the mouse, and the dose of the mRNA-encapsulating LNP dispersion was set to 10 µL per 1 g body weight of the mouse. After 4.5 hr from the administration of the mRNA-encapsulating LNP dispersion, a PBS solution of D-luciferin potassium was administered into the abdominal cavity of the mouse. The dose of D-luciferin potassium was set to 3 mg per mouse, and the dose of the PBS solution of D-luciferin potassium was set to 200 µL per mouse. After 15 min from the administration of the PBS solution of D-luciferin potassium, the mouse was euthanized, and the liver was isolated. The luminescence in the liver was quantified using an in vivo imaging system (IVIS) with an exposure of 10 sec. The amount of luminescence in the liver was quantified by image analysis using Live Imaging software attached to IVIS. The amount of luminescence (photons/sec) was calculated from the acquired image and used as an index of gene expression activity. The cationic lipids used, the luminescence intensity in the liver, and the relative luminescence intensity (= luminescence intensity in the liver when cationic lipid of Example was used/luminescence intensity in the liver when cationic lipid of Comparative Example was used) are shown in Table 7-1 to Table 7-3. "E+0a" (a: integer) indicated in Table 7-1 to Table 7-3 means "10^a". For example, "3.94E+09" means "3.94×10^9". […]

[3] = Particle size, PdI and zeta potential of mRNA-encapsulating LNPs by dynamic light scattering (Experimental Example 6); type: physicochemical; conditions: mRNA-encapsulating LNP; for zeta potential (mV): cationic lipid:DOPC:Chol=49:7.5:42.5:1, dispersion in TBS (Tables 8-1, 8-2); for PdI / particle size (nm): cationic lipid:DOPC:Chol=49:7.5:42.5:1, dispersion in TBS, dynamic light scattering (Tables 8-1, 8-2)
Procedure: An acidic buffer solution (total amount: 1300 µL) of nucleic acid was prepared by weighing 6.5 µg of mRNA solution (0.6 mg/mL) in a 5 mL tube and adding acidic citrate buffer (20 mM, pH 5.0).
An acidic buffer solution of nucleic acid and an ethanol solution of lipid were each weighed in a syringe. […] The obtained concentrate was diluted with TBS to a lipid concentration of 2 mM to give a dispersion containing LNP.
The particle size, PdI (Polydispersity Index), and zeta potential of the mRNA-encapsulating LNP prepared by the method of the above-mentioned 1 were measured by a dynamic light scattering method (Zetasizer Nano; Malvern). […]

[4] = tested on: mouse red blood cells; assay: Hemolysis activity (membrane fusion ability) at pH 7.4 and 5.5 (Experimental Example 8); type: cell-based, ICR mice
Procedure: LNP encapsulating mRNA that expresses luciferase (cationic lipid:DOPC:Chol:DMG-PEG2k = 52.5:7.5:40:1.5 (molar ratio)) was prepared by the method described in […], 1. As cationic lipid, the cationic lipid of Comparative Example, compound 94, compound 112, compound 162, compound 181, or compound 194 was used.
(§2) The collected blood was immediately mixed with 1.0 µL of heparin solution (5000 U/5 mL). About 9 mL of PBS was added to the blood to make the total volume 10 mL. The mixture was then mixed by inversion and centrifuged (4°C, 400 g, 10 min). The supernatant containing plasma components was removed using a Pasteur pipette. About 9 mL of PBS was added to the blood cell components to make the total volume 10 mL, and the mixture was centrifuged again. A similar washing procedure was repeated 4 times to obtain mouse red blood cells.
(§3) 2, 4, 6, 8, and 10 µL of mouse red blood cells were weighed and diluted with PBS containing 1 w/v% Triton-X100. The entire diluted solution was transferred to a clear 96-well plate, and the absorbance at 545 nm was measured using a plate reader. A calibration curve was created using these samples, and the point where the absorbance reached 1 was determined as the amount of blood cells to be used in the hemolysis assay. Empty LNP solution was weighed into an Eppendorf tube and diluted with malic acid-PBS buffer (pH 5.5, pH 7.4), followed by addition of mouse red blood cells. The final lipid concentration was 100 µM at pH 7.4 and 33.3 µM at pH 5.5, and the final volume of the solution was 250 µL. Each tube was shaken at 1900 rpm for 15 min. Each sample was centrifuged under centrifugation conditions (4°C, 400 g, 5 min), and 100 µL of the supernatant was transferred to a clear 96-well plate and the absorbance at 545 nm was measured. Untreated red blood cells were used as the negative control. 1 w/v% Triton-X was used as the positive control. The hemolysis activity of each sample was calculated using the following formula: Hemolysis activity (%) = 100×(absorbance of each sample - absorbance of negative control)/(absorbance of positive control - absorbance of negative control).

[5] = Measurement of Liposomal pKa (TNS fluorescence, LNP without nucleic acid); conditions: cationic lipid:DOPC:Chol = 52.5:7.5:40 (molar ratio) + DMG-PEG2k about 1.5 mol, pH at which the relative fluorescence intensity was 50%
Procedure: Lipid nano particles (LNP) without containing nucleic acid were used for the evaluation of Liposomal pKa.
To the obtained mixture was further added DMG-PEG2k (2 mM ethanol solution) in an amount of about 1.5 mol with respect to the total amount 100 mol of cationic lipid, DOPC, and Chol, and then ethanol was added to prepare an ethanol solution of the lipid (total amount: 360 µL).
An acidic malic acid buffer (20 mM, pH 3.0) (1080 µL) containing NaCl at a final concentration of 30 mM and an ethanol solution (360 µL) of lipid were each weighed in a syringe. Using an ultra high-speed nanomedicament producing apparatus NanoAssmblr (manufactured by Precision NanoSystems), LNP was prepared under the conditions of addition rate of acidic buffer solution: 3 mL/min, addition rate of ethanol solution of lipid: 1 mL/min, and syringe holder temperature: 25°C, and collected in a 15 mL tube. […]
20 mM Citrate buffer, sodium phosphate buffer, and tris HCl buffer, each containing NaCl at a final concentration of 150 mM and adjusted to various pHs within the range of pH 3.0 to 10.0, were prepared. […] The relative fluorescence intensity was calculated as a percentage, with the maximum value of the fluorescence intensity in each LNP being 100% and the minimum value being 0%.

[6] = tested on: liver; assay: In vivo gene expression, luciferase luminescence in the liver after tail vein administration (Experimental Example 7); conditions: BALB/c mouse, mRNA 0.05 mg/kg; for amount of luminescence (photons/sec) in liver: tail vein, 4.5 hr after administration, LNP cationic lipid:DOPC:Chol:DMG-PEG2k = 52.5:7.5:40:1.5, prepared as in Experimental Example 6; for relative amount of luminescence: liver luminescence relative to cationic lipid of Comparative Example
Procedure: LNP encapsulating mRNA that expresses luciferase (cationic lipid:DOPC:Chol:DMG-PEG2k = 52.5:7.5:40:1.5 (molar ratio)) was prepared by the method described in [Experimental Example 6], 1.
as §1, with “9.” for “7-1 to Table 7-3. "E+0a" (a: integer) indicated in Table 7-1 to Table 7-3 means "10^a".”

[7] = tested on: mouse red blood cells; assay: Hemolysis activity (membrane fusion ability) at pH 7.4 and 5.5 (Experimental Example 5); type: cell-based, ICR mice
Procedure: LNPs encapsulating mRNA that expresses luciferase (cationic lipid:DOPC:Chol:DMG-PEG2k=52.5:7.5:40:1.5 (molar ratio)) were prepared using the method described in [Experimental Example 2] 1. As cationic lipid, the cationic lipid of Comparative Example, compound 9, compound 14, compound 27, compound 33, or compound 42 was used.
as §2
as §3, with “1 w/v% Triton-X was used as the positive control.” left out

[8] = tested on: HeLa cells; assay: In vitro gene expression in HeLa cells (luciferase mRNA-encapsulating LNP, cumulative luminescence in 24 hr)
Procedure: LNP encapsulating mRNA that expresses luciferase (cationic lipid:DOPC:Chol:DMG-PEG2k = 50:10:40:1 (molar ratio)) was prepared by the method described in [Experimental Example 2], 1.
HeLa cells, which are human cervical cancer cells, were seeded in a 3.5 cm dish at 5.0×10^4 cells/2 mL/Dish 24 hours before transfection. After 24 hr, the medium was changed to a culture medium (D-MEM) containing 0.1 mM D-luciferin. The prepared mRNA-encapsulating LNP was diluted with PBS to an mRNA concentration of about 1 µg/mL. The diluted mRNA-encapsulating LNP solution (about 200 µL, mRNA: 0.2 µg) was added to a 3.5 cm dish, and set in an incubator luminometer KronosDio. The luminescence intensity of luciferase was measured for 2 min every one hour. The cumulative luciferase luminescence intensity in 24 hr was calculated from the obtained time change of expression. […] In Comparative Example, the cationic lipid described in Table 2 was used.

[9] = mRNA-encapsulating LNP containing the cationic lipid, dispersion in PBS (Table 5-3)
[10] = mRNA-encapsulating LNP containing the cationic lipid, dispersion in PBS, dynamic light scattering (Table 5-3)
[11] = pH of the endosomal environment (5.5), final lipid concentration 33.3 µM, Fig. 4, versus LNP of Comparative Example
[12] = physiological pH (7.4), final lipid concentration 100 µM, Fig. 3

With `CCCCCCCC(=O)OC(CC=CCCCCCCCC(=O)Oc1ccc(CC(=O)OCCC2CCN(CCSSCCN3CCC(CCOC(=O)Cc4ccc(OC(=O)CCCCCCCC=CCC(CCCCCC)OC(=O)CCCCC)cc4)CC3)CC2)cc1)CCCCCC` (stereo not shown) [compound 162] as the compound, how does the “zeta potential (mV)” value [1, 9] read?
The value was -5.04 mV.

What about the PdI [1, 10] of the same compound?
Its PdI is 0.041.

And the “particle size (nm)” value [1, 10]?
Its value is 91.2 nm.

And the “amount of luminescence (photons/sec) in liver” value (from here on “amount … (photons/sec) in liver”) [2]?
Its value is 4.43E+09 photons/sec.

What about the “relative amount of luminescence” value [2] of the same compound?
Its value is 2.85.

What about the “zeta potential (mV)” value [3] of the same compound?
The value was -3.44 mV.

What about the PdI [3] of the same compound?
Its PdI is 0.079.

And the “particle size (nm)” value [3]?
Its value is 126 nm.

What about the hemolysis activity [4, 11] of the same compound?
The hemolysis activity was “superior hemolysis activity compared to the LNP containing the cationic lipid of Comparative Example”.

And the hemolysis activity [4, 12]?
Its hemolysis activity is “none”.

Which “Liposomal pKa” value [5] does the source give for `CCCCCCCC/C=C\CCCCCCCC(=O)O[C@H](C/C=C\CCCCCCCC(=O)Oc1ccc(CC(=O)OCCC2CCN(CCSSCCN3CCC(CCOC(=O)Cc4ccc(OC(=O)CCCCCCC/C=C\C[C@H](CCCCCC)OC(=O)CCCCCCC/C=C\CCCCCCCC)cc4)CC3)CC2)cc1)CCCCCC` [compound 4] here?
Its value is 6.25.

What does the source list for `CCCCCCCC/C=C\CCCCCCCC(=O)Oc1ccc(CC(=O)OCCC2CCN(CCSSCCN3CCC(CCOC(=O)Cc4ccc(OC(=O)CCCC(=O)OC(CC(=O)OCCCC)(CC(=O)OCCCC)CC(=O)OCCCC)cc4)CC3)CC2)cc1` [compound 58]?
zeta potential (mV) [1, 9]: -3.5 mV; PdI [1, 10]: 0.065; particle size (nm) [1, 10]: 96.6 nm; zeta potential (mV) [3]: -4.2 mV; PdI [3]: 0.071; particle size (nm) [3]: 90.0 nm; amount of luminescence (photons/sec) in liver [6]: 1.72E+10 photons/sec; relative amount of luminescence [6]: 8.40

For `CCCCCCCC/C=C\CCCCCCCC(=O)Oc1ccc(CC(=O)OCCC2CCN(CCSSCCN3CCC(CCOC(=O)Cc4ccc(OC(=O)CCCC(=O)OC[C@H](COC(=O)CCCCCC)OC(=O)CCCCCC)cc4)CC3)CC2)cc1` [compound 14], which PdI ([1]; mRNA-encapsulating LNP, cationic lipid:DOPC:Chol = 50:10:40 (molar ratio) + DMG-PEG2k about 1 mol, Polydispersity Index, dynamic light scattering) is on record?
Its PdI is 0.073.

And the “zeta potential (mV)” value ([1]; mRNA-encapsulating LNP, cationic lipid:DOPC:Chol = 50:10:40 (molar ratio) + DMG-PEG2k about 1 mol, Zetasizer Nano)?
Its value is -2.80 mV.

And the “particle size (nm)” value ([1]; mRNA-encapsulating LNP, cationic lipid:DOPC:Chol = 50:10:40 (molar ratio) + DMG-PEG2k about 1 mol, dynamic light scattering)?
Its value is 92.18 nm.

And the “amount … (photons/sec) in liver” value [2]?
The value was 6.12E+09 photons/sec.

And the “relative amount of luminescence” value [2]?
The value was 4.03.

What about the hemolysis activity ([7]; pH of the endosomal environment (5.5), final lipid concentration 33.3 µM, Fig. 2, versus LNP of Comparative Example) of the same compound?
The hemolysis activity was “superior hemolysis activity compared to LNP containing the cationic lipid of Comparative Example”.

What about the hemolysis activity ([7]; physiological pH (7.4), final lipid concentration 100 µM, Fig. 1) of the same compound?
The hemolysis activity was “did not exhibit hemolysis activity”.

What about the “cumulative luciferase luminescence intensity (RLU) in 24 hr” value ([8]; LNP cationic lipid:DOPC:Chol:DMG-PEG2k = 50:10:40:1, mRNA 0.2 µg per dish, E+0a means 10^a) of the same compound?
Its value is 1.56E+08 RLU.

What about the relative luminescence intensity ([8]; cumulative intensity in 24 hr relative to cationic lipid of Comparative Example) of the same compound?
Its relative luminescence intensity is 8.44.

Which “zeta potential (mV)” value [1, 9] does the source give for `CCCCCCCC/C=C\CCCCCCCC(=O)Oc1ccc(CC(=O)OCCC2CCN(CCSSCCN3CCC(CCOC(=O)Cc4ccc(OC(=O)CCCCCCCC(OC(=O)CC)C(CCCCCCCC)OC(=O)CC)cc4)CC3)CC2)cc1` (stereo not shown) [compound 94] here?
The value was -2.40 mV.

And the PdI [1, 10]?
Its PdI is 0.048.

What about the “particle size (nm)” value [1, 10] of the same compound?
The value was 88.0 nm.

And the “amount … (photons/sec) in liver” value [2]?
The value was 9.40E+09 photons/sec.

And the “relative amount of luminescence” value [2]?
Its value is 6.18.

What about the “zeta potential (mV)” value [3] of the same compound?
Its value is -4.45 mV.

And the PdI [3]?
The PdI was 0.121.

And the “particle size (nm)” value [3]?
The value was 119.7 nm.

And the hemolysis activity [4, 11]?
The hemolysis activity was “superior hemolysis activity compared to the LNP containing the cationic lipid of Comparative Example”.

And the hemolysis activity [4, 12]?
The hemolysis activity was “none”.

With `CCCCCCCC/C=C\CCCCCCCC(=O)Oc1ccc(CC(=O)OCCC2CCN(CCSSCCN3CCC(CCOC(=O)Cc4ccc(OC(=O)CCCCCCC/C=C\CC(CCCCCC)OC(=O)C(CC)CCCC)cc4)CC3)CC2)cc1` (stereo not shown) [compound 166] as the compound, how does the “zeta potential (mV)” value [1, 9] read?
The value was -2.5 mV.

What about the PdI [1, 10] of the same compound?
The PdI was 0.047.

And the “particle size (nm)” value [1, 10]?
Its value is 89.3 nm.

What about the “zeta potential (mV)” value [3] of the same compound?
The value was -2.99 mV.

What about the PdI [3] of the same compound?
Its PdI is 0.09.

And the “particle size (nm)” value [3]?
The value was 130.5 nm.

And the “amount … (photons/sec) in liver” value [6]?
Its value is 8.49E+09 photons/sec.

And the “relative amount of luminescence” value [6]?
The value was 4.15.
